The conditions of data set [1]: systemic clinical use; cited from earlier work.
The subject of data set [2] is colon carcinoma tumor mass. Kind of data set: Extended duration PDT of a colon carcinoma tumor mass in a patient, implanted LED probes. The class given is in vivo, human. An excerpt:
A patient in the terminal phase of recurrent malignant colon cancer having undergone chemotherapy and irradiation therapy, presented with a protruding colon carcinoma tumor mass of approximately 500 grams and approximately 13 cm in diameter, which extended through the patient's dermis. Due to the advanced state of the patient's disease and due to the highly vascularized nature of this tumor mass, resection was not feasible. Further, this large tumor mass presented a significant amount of pain and discomfort to the patient, as well as greatly impairing the patient's ability to lie flat.
Six separate light source probes, each including a linear array of LEDs, were surgically implanted in this large human tumor using standard surgical procedures. A single dose of a photosensitizer agent (aminolevulinic acid (ALA) at 60 mg/kg) was provided by oral administration to the patient. Following a period of five hours to permit sufficient clearance of the photosensitizing agent from healthy tissues, light irradiation was administered. An intensity of about 25-30 mW of light from each light source probe (650 nm peak wavelength) was delivered to the tumor for 40 hours. […] The total fluence delivered to the tumor bed during this single extended duration treatment was in excess of 20,000 Joules.
The fluence rate employed in this Example represented about 150-180 mW/cm^2, with a total fluence more than 20,000 Joules.

The test system of data set [3] is transplanted human tumors. Kind of data set: Nude mice with established transplanted human tumors, photosensitizer injected, low fluence light 72 hours. As to conditions: for tumor necrosis: 660 nm light 72 hours, 30 microwatts per cm^2, after 7 days, two mice. The format is in vivo. How it is done: (§1) A series of experiments were performed using nude mice growing transplanted human tumors. The mice are injected with various photosensitizers and the tumors illuminated with low fluence of only 30 uW of light over a 72 hour time period. Extended tumor necrosis was observed.
(§2) All control nude mice were injected with the PDT drug (intratumor or intraperitoneal) and 5 million human carcinoma cells which developed a tumor mass. These mice were kept in a darkened environment.
(§3) Another two mice with established tumors were injected with 50-100 micrograms of Pheophorbide A into the lesion and exposed to 660 nm light (30 microwatts per cm^2) for 72 hours.
(§4) Two experimental mice were injected with epithelial cancer cells preincubated with 20 micrograms of Chlorin e6. […] Another two mice were injected with 100-150 micrograms of Chlorin e6 intratumorally and then exposed to 660 nm light (30 microwatts per cm^2) for 72 hours.
Five experimental mice bearing established tumors were injected with 1 mg Hpd intraperitoneally followed by exposure to 630 nm (peak) light (30 microwatts per cm^2) for 72 hours. […] There was no effect observed on control animals maintained in the absence of light (dark control mice).

Data set [4] concerns epithelial cancer cells. Kind of data set: Nude mice injected with epithelial cancer cells preincubated with photosensitizer, low fluence light. The format is in vivo. To be noted: for tumor growth: 660 nm light 48 hours, two mice. The procedure:
as §1, §2, §3, §4

For data set [5] the following is noted: cited from earlier work.

These results are taken from patent US20030114434A1, “EXTENDED DURATION LIGHT ACTIVATED CANCER THERAPY” (priority 1999, published 2003).

Several values for one entry are separate records, joined by “and”; a condition that tells them apart may be missing. Identical values can stand only once.

Consider `CCOC(=O)C1=Cc2c3nc(cc4nc(cc5[n-]c(cc6[n-]c2c(C)c6CC)c(C)c5CC)C(C)=C4CC)[C@@H](C)[C@]13CC.[Cl-].[Cl-].[Sn]` (racemic) [PURLYTIN], for which the “duration of dermal photosensitivity” value in data set [1] is recorded as “at least several weeks”.

On to `NCC(=O)CCC(=O)O` [ALA, aminolevulinic acid], for which, in data set [2] (ALA 60 mg/kg oral, after 40 hours of PDT), the “collateral damage to surrounding normal tissue” value is on record as “no collateral damage”. For the same compound, the “radius of extensive tumor necrosis from each light source probe” value in data set [2] (ALA 60 mg/kg oral, light from 5 hours after dose, 650 nm, 40 hours of PDT, total fluence >20,000 Joules) is “greater than 5 cm”. In data set [2] (over four weeks following PDT), the “reduction of tumor tissue (necrotic tissue debrided)” value is “approximately 500 grams”.

Turning to `C=Cc1c(C)c2cc3nc(c(CC(=O)O)c4[nH]c(cc5nc(cc1[nH]2)C(C)=C5CC)c(C)c4C(=O)O)[C@@H](CCC(=O)O)[C@@H]3C` [Chlorin e6], in data set [3] (100-150 micrograms intratumorally), the tumor necrosis result is listed as “Extensive tumor necrosis”. Also, the “tumor growth, dark control” value in data set [4] (Chlorin e6 experiment, absence of light) is on record as “developed a large tumor”. The tumor growth result in data set [4] (cells preincubated with 20 micrograms, 30 microwatts per cm^2, after 1.5 months) was “no tumor growth”.

For `Oc1cccc(-c2c3nc(c(-c4cccc(O)c4)c4ccc([nH]4)c(-c4cccc(O)c4)c4nc(c(-c5cccc(O)c5)c5ccc2[nH]5)CC4)C=C3)c1` [FOSCAN], the “duration of dermal photosensitivity” value in data set [1] was “at least several weeks”.

Take `CC(=O)[O-].CC(=O)[O-].CCc1c(CC)c2cc3nc(cnc4cc(OCCOCCOCCOC)c(OCCOCCOCCOC)cc4ncc4nc(cc1[n-]2)C(CCCO)=C4C)C(C)=C3CCCO.O.[Lu+3]` [Lutrin, lutetium texaphyrin]: the “time for clearance from normal tissues (predominant amount)” value in data set [5] (from administration) is on record as “about 24 hours”. In data set [5] (from time of administration), the “time tumor tissue retains the agent” value was 48 to 96 h and 24 to 96 h. Also, in data set [5] (in vivo), the “time at which a larger proportion clears from normal tissue” value is “about 8 hours”, the “time at which a proportion begins to clear from normal tissue” value was “about 3 hours” and the “time at which an even greater proportion clears from normal tissue” value is “about 16 hours”.

On to Pheophorbide A, for which the tumor necrosis result in data set [3] (50-100 micrograms into the lesion) was “Extensive tumor necrosis”. Besides, in data set [3] (Pheophorbide A experiment, absence of light), the “effect on tumor, dark control” value is recorded as “no effect”. Moreover, the “tumor growth, dark control” value in data set [4] (Pheophorbide A experiment, maintained in the absence of light) is listed as “developed a large tumor”. Moreover, in data set [4] (cells preincubated with 10 micrograms, 30 microwatts per cm2, after 1.5 months), the tumor growth entry is reported as “no tumor growth”.

Regarding sodium porfimer [PHOTOFRIN], the “duration of dermal photosensitivity” value in data set [1] is “up to six weeks”.
